Format in all cases: cell-based
For test [1], the system named is CAL-33 cells. The test can be described thus: Proliferation assay, adherent cells, crystal violet. The note with it: Homo sapiens, 96 h, CAL-33 (DSMZ ACC-447), squamous-cell carcinoma, head and nape, 4 days incubation. How it is done: (§1) Human tumour cells were originally obtained from the American Type Culture Collection (ATCC), the Deutsche Sammlung von Mikroorganismen and Zellkulturen (DSMZ) (German Collection of Microorganisms and Cell Cultures) in Braunschweig, CLS Cell Lines Service GmbH in Eppelheim, the Institut Gustave Roussy (Villejuif, France), or the Charité in Berlin (table 1). Adherently growing cells (A-673, RD, Rh30, Rh41, SK-N-AS, NCI-H2286, HCC-366, FaDu, CAL-33, RPMI-2650, SiHa) were plated out in a density of 3000-4000 cells/measurement point, depending on the rate of growth of the cell line, in a 96-well multititre plate in 200 μl of growth medium (DMEM/HAMS F12, 2 mM L-glutamine, 10% foetal calf serum). After 24 hours, the cells of one plate (zero plate) were dyed with crystal violet (see below), whereas the medium of the other plates was replaced with fresh culture medium (200 μl) to which the test substances were added in various concentrations (0 μM, and also in the range of 0.001-3 μM; the final concentration of the solvent dimethyl sulphoxide was 0.5%). The cells were incubated for 4 days in the presence of the test substances. Cell proliferation was determined by dyeing the cells with crystal violet: the cells were fixed at room temperature for 15 min by adding 20 μl/measurement point of an 11% strength glutaraldehyde solution. After washing the fixed cells three times with water, the plates were dried at room temperature. The cells were dyed by adding 100 μl/measurement point of a 0.1% strength crystal violet solution (pH adjusted to pH 3 by adding acetic acid). After washing the dyed cells three times with water, the plates were dried at room temperature. The dye was dissolved by adding 100 μl/measurement point of a 10% strength acetic acid solution. Absorbance was determined photometrically at a wavelength of 595 nm. The percentage change in cell growth was calculated by normalizing the measured values to the absorbance values of the zero plate (=0%) and the absorbance of the untreated (0 μM) cells (=100%). The measured data were normalized to 0% inhibition (cell proliferation without inhibitor) and 100% inhibition (zero plate). The IC50 values were determined by means of a four parameter fit.
(§2) The substances were investigated in the following cell lines, which, by way of example, represent the specified indications (table 1).

Test [2] concerns Rh41 cells. Described as above. The note with it: Homo sapiens, 96 h, Rh41 (DSMZ ACC-592), rhabdomyosarcoma, 4 days incubation. How it is done:
as §1, §2

For test [3], the system named is RPMI-2650 cells. The description is as above. Particulars: Homo sapiens, 96 h, RPMI-2650 (DSMZ ACC-287), squamous-cell carcinoma, head and nape, 4 days incubation. How it is done: as §1, §2
In test [4] the test system is NCI-H2286 cells. The description is as above. The note with it: Homo sapiens, 96 h, NCI-H2286 (ATCC CRL-5938), squamous-cell carcinoma, lung, 4 days incubation. The method, then:
as §1, §2

Test [5] concerns SiHa cells. Described as above. Particulars: Homo sapiens, 96 h, SiHa (ATCC HTB-35), squamous-cell carcinoma, cervix, 4 days incubation. How it is done:
as §1, §2

For test [6], the system named is Rh30 cells. The test is described as above. Particulars: Homo sapiens, 96 h, Rh30 (DSMZ ACC-489), rhabdomyosarcoma, 4 days incubation. The method, then: as §1, §2
Test [7] concerns A-673 cells. The test is described as above. The note with it: Homo sapiens, A673, 96 h, A-673 (ATCC CRL-1598), rhabdomyosarcoma, 4 days incubation. The method, then: as §1, §2
The test system of test [8] is SK-N-AS cells. Described as above. Particulars: Homo sapiens, 96 h, SK-N-AS (ATCC CRL-2137), neuroblastoma, 4 days incubation. How it is done:
as §1, §2

Test [9] concerns RD cells. Described as above. The note with it: Homo sapiens, 96 h, RD (CLS-300401), rhabdomyosarcoma, 4 days incubation. The method, then:
as §1, §2

For test [10], the system named is HCC-366 cells. The test is described as above. Particulars: Homo sapiens, HCC366, 96 h, HCC-366 (DSMZ ACC-492), squamous-cell carcinoma, lung, 4 days incubation. How it is done:
as §1, §2

The subject of test [11] is FaDu cells. Described as above. The note with it: Homo sapiens, 96 h, FaDu (ATCC HTB-43), squamous-cell carcinoma, head and nape, 4 days incubation. How it is done: as §1, §2
Test [12] has as its system UPN-1 cells. The test can be described thus: Cytotoxic action after 24 hours, WST-1 viability. The note with it: Homo sapiens, UPN1, UPN-1 (Institut Gustave Roussy), mantle cell lymphoma, after 24 hours of incubation. How it is done: (§3) The cytotoxic action of BAY 1000394 on Jeko-1 and UPN-1 cells was also determined after 24 hours of incubation with the substance. To this end, 50 000 cells per measurement point were plated out in 96-well plates and incubated with BAY 1000394 in various concentrations in the range of 0.001 to 1.0 μM. After 24 hours, the viability of the cells was determined in accordance with the WST-1 method (Roche Diagnostics, catalogue number 11644807001).
as §2

Test [13] has as its system Jeko-1 cells. The test can be described thus: Cytotoxic action after 24 hours, WST-1 viability. The note with it: Homo sapiens, Jeko-1 (Institut Gustave Roussy), mantle cell lymphoma, after 24 hours of incubation. The method, then:
as §3, §2
For orientation: Formazan colour is commonly taken as a measure of viable cells.

Test [14] relates to TMD-8 cells. Kind of test: Proliferation assay, suspension cells, Cell Titer-Glo. The note with it: Homo sapiens, TMD8, 96 h; TMD-8 (Charité, Berlin), diffuse large B-cell lymphoma; 4 days incubation; CTG. How it is done: (§4) Cells growing in suspension (HBL-1, TMD-8, GRANTA-519, Jeko-1) were plated out in a cell density of 2000-4000 cells/measurement point, depending on the rate of growth of the cell line, in a black-walled, clear-bottom 96-well multititre plate in 100 μl of growth medium (DMEM/HAMS F12, 2 mM L-glutamine, 10% foetal calf serum). After 24 hours, cell density was determined in one plate (zero plate) by adding 60 μl/measurement point of CTG solution (Promega Cell Titer-Glo solution (catalogue numbers G755B and G756B)), subsequent incubation for 2 min followed by 10 min shaking (in the dark) and measurement of luminescence (VICTOR V, Perkin Elmer). For the test plates, the test substances were prepared in various concentrations (0 μM, and also in the range of 0.001-3 μM; the final concentration of the solvent dimethyl sulphoxide was 0.5%) as 3× concentrated solutions in fresh growth medium. Aliquots of 50 μl each were added to the cell suspensions and the cells were incubated for 4 days in the presence of the test substances. Subsequently, cell density was determined using CTG solution as described above and IC50 values were calculated by means of a four parameter fit.
as §2

In test [15] the test system is GRANTA-519 cells. The description is as above. The note with it: Homo sapiens, 96 h; GRANTA-519 (DSMZ ACC-342), mantle cell lymphoma; 4 days incubation; CTG. How it is done: as §4, §2
Test [16] deals with Jeko-1 cells. Described as above. The note with it: Homo sapiens, 96 h; Jeko-1 (DSMZ ACC-553), mantle cell lymphoma; 4 days incubation; CTG. How it is done:
as §4, §2

Test [17] relates to HBL-1 cells. The test is described as above. Particulars: Homo sapiens, HBL1, 96 h; HBL-1 (Charité, Berlin), diffuse large B-cell lymphoma; 4 days incubation; CTG. The method, then:
as §4, §2

This is an account of results in patent US20160045496A1, “USE OF (RS)-S-CYCLOPROPYL-S-(4--5-(TRIFLUOROMETHYL)PYRIMIDIN-2-YL]AMINO}PHENYL)SULFOXIMIDE FOR TREATMENT OF SPECIFIC TUMOURS” (BAYER PHARMA AKTIENGESELLSCHAFT, priority 2013, published 2016).

Molecules are shown by their SMILES.

The term IC50 denotes the concentration needed to halve the response being measured. In the case of `C[C@@H](O)[C@@H](C)Oc1nc(Nc2ccc([S@](=N)(=O)C3CC3)cc2)ncc1C(F)(F)F` [BAY 1000394, (R)-S-cyclopropyl-S-(4-{[4-{[(1R, 2R)-2-hydroxy-1-methylpropyl]oxy}-5-(trifluoromethyl)pyrimidin-2-yl]amino}phenyl)sulphoximide], the IC50 in test [1] is 19 nM; in [2], 17 nM; in [3] it was 13 nM; in test [4], 7 nM; in test [5], 10 nM; in [6], 23 nM. In addition, the IC50 in test [7] worked out at 9.8 nM; in [8], 22 nM; in [9], 26 nM; in test [10], 20 nM; in test [11] it was 46 nM; in [12], 4.7 nM. The IC50 in [13] came out at 31 nM; in [14], 35 nM; in test [15] it was 44 nM; in test [16] it was 20 nM; in [17], 24 nM.
